In patent publication US20170319480A1, “PHARMACEUTICAL FORMULATION” (Boehringer Ingelheim International GmbH, priority 2014, published 2017):

Assay: Bioavailability of afatinib in fed state
Type: in vivo
Details: adults
Description: As decreased bioavailability of afatinib has been observed in adults ad fed state, the oral solution is not intended to be administered with food or drinks.

bioavailability in fed state: decreased
Structure (SMILES): CN(C)C/C=C/C(=O)Nc1cc2c(Nc3ccc(F)c(Cl)c3)ncnc2cc1O[C@H]1CCOC1 [afatinib, 4-[(3-chloro-4-fluorophenyl)amino]-6-{[4-(N,N-dimethylamino)-1-oxo-2-buten-1-yl]amino}-7-((S)-tetrahydrofuran-3-yloxy)-quinazoline]
